Reference: paper PMC6273209, “Evaluation of the Enantiomer Specific Biokinetics and Radiation Doses of [^18F]Fluspidine—A New Tracer in Clinical Translation for Imaging of σ1 Receptors” (Molecules, 2016)

Legend:
[1] = Human dosimetry estimation from ex vivo biodistribution (organ harvesting method); assay type: in vivo, CD-1 mice; settings: for OD Adrenals / OD Brain / OD Breasts / OD Gallbladder Wall / OD Heart Wall / OD Kidneys / OD LLI Wall / OD Liver / OD Lungs / OD Muscle / OD Osteogenic Cells / OD Ovaries / OD Pancreas / OD Red Marrow / OD Skin / OD Small Intestine / OD Spleen / OD Stomach Wall / OD Testes / OD Thymus / OD Thyroid / OD Total Body / OD ULI Wall / OD Urinary Bladder Wall / OD Uterus / ED Contr. Adrenals / ED Contr. Brain / ED Contr. Breasts / ED Contr. Gallbladder Wall / ED Contr. Heart Wall / ED Contr. Kidneys / ED Contr. LLI Wall / ED Contr. Liver / ED Contr. Lungs / ED Contr. Muscle / ED Contr. Osteogenic Cells / ED Contr. Ovaries / ED Contr. Pancreas / ED Contr. Red Marrow / ED Contr. Skin / ED Contr. Small Intestine / ED Contr. Spleen / ED Contr. Stomach Wall / ED Contr. Thymus / ED Contr. Thyroid / ED Contr. ULI Wall / ED Contr. Urinary Bladder Wall / ED Contr. Uterus: mouse organ harvesting; for OD Adrenals / OD Brain / OD Breasts / OD Gallbladder Wall / OD Heart Wall / OD Kidneys / OD LLI Wall / OD Liver / OD Lungs / OD Muscle / OD Osteogenic Cells / OD Ovaries / OD Pancreas / OD Red Marrow / OD Skin / OD Small Intestine / OD Spleen / OD Stomach Wall / OD Testes / OD Thymus / OD Thyroid / OD Total Body / OD ULI Wall / OD Urinary Bladder Wall / OD Uterus: scaled to human adult male model; for ED Contr. Adrenals / ED Contr. Brain / ED Contr. Breasts / ED Contr. Gallbladder Wall / ED Contr. Heart Wall / ED Contr. Kidneys / ED Contr. LLI Wall / ED Contr. Liver / ED Contr. Lungs / ED Contr. Muscle / ED Contr. Osteogenic Cells / ED Contr. Ovaries / ED Contr. Pancreas / ED Contr. Red Marrow / ED Contr. Skin / ED Contr. Small Intestine / ED Contr. Spleen / ED Contr. Stomach Wall / ED Contr. Thymus / ED Contr. Thyroid / ED Contr. ULI Wall / ED Contr. Urinary Bladder Wall / ED Contr. Uterus / ED ICRP 60 / ED: scaled to human; for ED Contr. Adrenals / ED Contr. Brain / ED Contr. Breasts / ED Contr. Gallbladder Wall / ED Contr. Heart Wall / ED Contr. Kidneys / ED Contr. LLI Wall / ED Contr. Liver / ED Contr. Lungs / ED Contr. Muscle / ED Contr. Osteogenic Cells / ED Contr. Ovaries / ED Contr. Pancreas / ED Contr. Red Marrow / ED Contr. Skin / ED Contr. Small Intestine / ED Contr. Spleen / ED Contr. Stomach Wall / ED Contr. Thymus / ED Contr. Thyroid / ED Contr. ULI Wall / ED Contr. Urinary Bladder Wall / ED Contr. Uterus / ED: ICRP 103 weighting; for ED ICRP 60 / ED: mouse, harvesting; for ED ICRP 60: ICRP 60 weighting
Description: Female CD-1 mice (age: 12 weeks) received an intravenous injection of (R)-(+)-[^18F]fluspidine (0.35 ± 0.08 MBq; weight: 29.8 ± 2.2 g; n = 28) or (S)-(−)-[^18F]fluspidine (0.39 ± 0.05 MBq; weight: 29.3 ± 1.9 g; n = 22). Two to three animals per time point were sacrificed by cervical dislocation at 5, 15, 30, 45, 60, 90, 120, 180, and 240 min. p.i. The brain, heart, lung, stomach, small intestine (SI), large intestine (LI), liver, kidneys, urinary bladder (UB), spleen, thymus, pancreas, adrenals, and ovaries were dissected, weighed, and the accumulated activity quantified in a gamma-counter (WIZARD Automatic Gamma Counter, PerkinElmer, Waltham, MA, USA) to determine the percentage injected activity (dose) per gram of tissue (%ID/g).
In addition, the sampling time p.i. and %ID/g values were scaled proportionately to human magnitude (please see Equations (1) and (2) in Section 4.4) prior to dose estimation with OLINDA/EXM (Vanderbilt University, Nashville, TN, USA, version 1.0).
For human dosimetry estimation from animal biodistribution and PET/MR imaging, animal organ masses and time scale was extrapolated to human magnitudes. At first, the organ-specific animal %ID data were extrapolated to the human scale with the equation (1) %ID/organhuman=%ID/gmouse · morganhuman · mmouse/mhuman with the fraction of the injected activity in the corresponding human organ = %ID/organhuman , the fraction of injected activity per gram animal organ tissue = %ID/gmouse and morganhuman the mass of the corresponding human organ. At second, a time scale extrapolation is needed due to differences in the metabolic rate using the equation (2) thuman=tmouse{mhuman/mmouse}^0.25 including the human time scale = thuman , the animal time scale = tmouse and the ratio of animal and human body weights = mmouse/mhuman .
The human dosimetry estimation was performed with the data extrapolated as well as the genuine human data using OLINDA/EXM software. The time-activity curves were estimated by exponential fitting and calculating the time integral, which equals the number of disintegrations (NODs) per organ during the observation period normalized to 1 Becquerel administered activity dose. […] Therefore, activity data of the urinary bladder was derived from the image for each time point. In contrast, for humans the activity concentration data of the urinary bladder was obtained in a more direct approach. At first, the activity and volume of urine was determined in the last frame of the PET scan before each micturition. Afterwards, the voided urine was collected, weighed, and the activity of three aliquots (assuming 1 mL = 1 g) determined with a gamma counter, and the activity of the whole sample estimated. The difference between imaged and sampled urine activity is equal to the residue of radioactive urine in the urinary bladder. To calculate the NOD in the human urinary bladder, the time-activity curve is integrated using a trapezoidal equation (3) %ID˜UB=1/2∑i=1n−1(%IDi+%IDi+1)(ti+1−ti) with the fraction of injected activity %IDi at the time ti and the cumulated activity of the urinary bladder i.e., the NOD %ID˜UB .
Furthermore, the NODs of the gastric system were calculated following the ICRP GI model (ICRP 30) as implemented in OLINDA 1.0. The NODs obtained either from the EXM module or the trapezoidal equation were transferred to OLINDA. The OD for the chosen hermaphroditic adult male phantom is estimated following the MIRD scheme. The S values are pre-calculated and implemented for the respective phantom in OLINDA. Subsequently, the ED contribution from each organ is calculated by multiplying the ODs with the respective tissue weighting factors as published by the International Commission on Radiological Protection (ICRP 103 [27]) for each organ. […]

[2] = target: σ1 receptors; parameters: method as in PMID 24130175; settings: read-out: Ki (affinity towards σ1 receptors); cited from earlier work

## [18F]CC[C@H]1OC2(CCN(Cc3ccccc3)CC2)c2ccccc21 [(R)-(+)-[^18F]fluspidine]
[1]
  OD Adrenals: 18.6 μSv/MBq
  OD Brain: 12.6 μSv/MBq
  OD Breasts: 11.3 μSv/MBq
  OD Gallbladder Wall: 14.0 μSv/MBq
  OD Heart Wall: 22.3 μSv/MBq
  OD Kidneys: 27.6 μSv/MBq
  OD LLI Wall: 16.4 μSv/MBq
  OD Liver: 10.3 μSv/MBq
  OD Lungs: 45.5 μSv/MBq
  OD Muscle: 7.1 μSv/MBq
  OD Osteogenic Cells: 19.1 μSv/MBq
  OD Ovaries: 24.9 μSv/MBq
  OD Pancreas: 21.7 μSv/MBq
  OD Red Marrow: 13.5 μSv/MBq
  OD Skin: 8.7 μSv/MBq
  OD Small Intestine: 25.1 μSv/MBq
  OD Spleen: 17.2 μSv/MBq
  OD Stomach Wall: 14.3 μSv/MBq
  OD Testes: 10.8 μSv/MBq
  OD Thymus: 19.3 μSv/MBq
  OD Thyroid: 11.5 μSv/MBq
  OD Total Body: 12.2 μSv/MBq
  OD ULI Wall: 25.6 μSv/MBq
  OD Urinary Bladder Wall: 20.2 μSv/MBq
  OD Uterus: 14.9 μSv/MBq
  ED Contr. Adrenals: 0.2 μSv/MBq
  ED Contr. Brain: 0.1 μSv/MBq
  ED Contr. Breasts: 1.4 μSv/MBq
  ED Contr. Gallbladder Wall: 0.1 μSv/MBq
  ED Contr. Heart Wall: 0.2 μSv/MBq
  ED Contr. Kidneys: 0.2 μSv/MBq
  ED Contr. LLI Wall: 1.0 μSv/MBq
  ED Contr. Liver: 0.4 μSv/MBq
  ED Contr. Lungs: 5.5 μSv/MBq
  ED Contr. Muscle: 0.1 μSv/MBq
  ED Contr. Osteogenic Cells: 0.2 μSv/MBq
  ED Contr. Ovaries: 2.0 μSv/MBq
  ED Contr. Pancreas: 0.2 μSv/MBq
  ED Contr. Red Marrow: 1.6 μSv/MBq
  ED Contr. Skin: 0.1 μSv/MBq
  ED Contr. Small Intestine: 0.2 μSv/MBq
  ED Contr. Spleen: 0.1 μSv/MBq
  ED Contr. Stomach Wall: 1.7 μSv/MBq
  ED Contr. Thymus: 0.2 μSv/MBq
  ED Contr. Thyroid: 0.5 μSv/MBq
  ED Contr. ULI Wall: 1.5 μSv/MBq
  ED Contr. Urinary Bladder Wall: 0.8 μSv/MBq
  ED Contr. Uterus: 0.1 μSv/MBq
  ED ICRP 60: 20.1 μSv/MBq
  ED: 18.4 μSv/MBq

## FCC[C@@H]1OC2(CCN(Cc3ccccc3)CC2)c2ccccc21 [(S)-(−)-[^18F]fluspidine]
[2]
  Ki: 2.3 nM
[1]
  OD Adrenals: 36.0 μSv/MBq
  OD Brain: 12.4 μSv/MBq
  OD Breasts: 11.2 μSv/MBq
  OD Gallbladder Wall: 15.5 μSv/MBq
  OD Heart Wall: 17.9 μSv/MBq
  OD Kidneys: 35.6 μSv/MBq
  OD LLI Wall: 19.0 μSv/MBq
  OD Liver: 12.5 μSv/MBq
  OD Lungs: 30.5 μSv/MBq
  OD Muscle: 7.2 μSv/MBq
  OD Osteogenic Cells: 19.6 μSv/MBq
  OD Ovaries: 17.0 μSv/MBq
  OD Pancreas: 26.2 μSv/MBq
  OD Red Marrow: 13.6 μSv/MBq
  OD Skin: 9.1 μSv/MBq
  OD Small Intestine: 31.9 μSv/MBq
  OD Spleen: 17.6 μSv/MBq
  OD Stomach Wall: 14.8 μSv/MBq
  OD Testes: 11.2 μSv/MBq
  OD Thymus: 12.0 μSv/MBq
  OD Thyroid: 11.7 μSv/MBq
  OD Total Body: 12.5 μSv/MBq
  OD ULI Wall: 33.3 μSv/MBq
  OD Urinary Bladder Wall: 13.9 μSv/MBq
  OD Uterus: 15.9 μSv/MBq
  ED Contr. Adrenals: 0.3 μSv/MBq
  ED Contr. Brain: 0.1 μSv/MBq
  ED Contr. Breasts: 1.3 μSv/MBq
  ED Contr. Gallbladder Wall: 0.1 μSv/MBq
  ED Contr. Heart Wall: 0.2 μSv/MBq
  ED Contr. Kidneys: 0.3 μSv/MBq
  ED Contr. LLI Wall: 1.1 μSv/MBq
  ED Contr. Liver: 0.5 μSv/MBq
  ED Contr. Lungs: 3.7 μSv/MBq
  ED Contr. Muscle: 0.1 μSv/MBq
  ED Contr. Osteogenic Cells: 0.2 μSv/MBq
  ED Contr. Ovaries: 1.4 μSv/MBq
  ED Contr. Pancreas: 0.2 μSv/MBq
  ED Contr. Red Marrow: 1.6 μSv/MBq
  ED Contr. Skin: 0.1 μSv/MBq
  ED Contr. Small Intestine: 0.3 μSv/MBq
  ED Contr. Spleen: 0.2 μSv/MBq
  ED Contr. Stomach Wall: 1.8 μSv/MBq
  ED Contr. Thymus: 0.1 μSv/MBq
  ED Contr. Thyroid: 0.5 μSv/MBq
  ED Contr. ULI Wall: 2.0 μSv/MBq
  ED Contr. Urinary Bladder Wall: 0.6 μSv/MBq
  ED Contr. Uterus: 0.1 μSv/MBq
  ED ICRP 60: 17.3 μSv/MBq
  ED: 16.7 μSv/MBq
[1]; listed as (S)-(−)-[^18F]Fluspidine
  ED: 16.7 μSv/MBq
